Test results taken from article PMC4492822 (EMBO Molecular Medicine, 2015).

What was measured:
HAPI cells [1] = assay type: cell-based, rat
Protocol: Figure 5 Toxicity studies of RK-33 in mice • Following injection of 20 mg/kg of RK-33, twice a week for 7 weeks, extensive histopathological examination was carried out following necropsy. Identical patterns were observed both in the control and in the treated mice (n = 2). Samples were stained with H&E. Scale bar is 50 μm. • Pharmacokinetics of RK-33 in SCID mice at various time intervals. Results are mean ± SD from 5 mice. LC-MS/MS method was used to determine concentration of RK-33 in mouse plasma and tissue. • Liquid chromatography–mass spectrometry (LC-MS/MS) analysis was performed to determine different metabolites of RK-33. • RK-33 and metabolites characterized by LC-MS/MS in human liver microsomes using the scan mode function of the LC-MS/MS. • HAPI cells were treated with RK-33 (10 μM), HA14-1 (25 μM), or DMSO vehicle, followed by oligomycin (oligo, 0.5 μg/ml), FCCP (3 μM), and antimycin A (AA, 1 μM) while oxygen consumption rate (OCR) was measured. Pyruvate (10 mM) was added in combination with FCCP to ensure that substrate supply was not rate-limiting for maximal OCR. Data are mean ± SD from 2 to 3 wells and representative of independent experiments performed with two different HAPI passages. OCR is baseline-normalized to the point prior to drug or vehicle addition. • HAPI microglial cells were incubated for 1 h in glucose-free XF24 assay medium that was supplemented with 2-deoxyglucose (50 mM) and pyruvate (10 mM). RK-33 (10 μM), oligomycin (0.5 μg/ml), or vehicle control was additionally present as indicated. Results are mean ± SD from 12 replicates pooled from experiments using two consecutive passages. Significance was assessed by two-sided, unpaired t-test. […]
Oxygen consumption measurements were performed using an XF24 Extracellular Flux Analyzer (Seahorse Bioscience, Billerica, MA) as previously described (Wu et al, [2007]; Clerc & Polster, [2012]). […] The ATP bioluminescent somatic cell assay kit (Sigma-Aldrich) was employed for the determination of ATP levels by luminescence using a FLUOstar OPTIMA multimodal plate reader (BMG LABTECH, Inc., Cary, NC). […]

HAPI cells [2] = assay type: cell-based, rat; conditions: 0.5 μg/ml, 1 h

Compound: CCCCCC[C@H]1C(=O)O[C@H](C)[C@H](NC(=O)c2cccc(NC=O)c2O)C(=O)O[C@@H](C)[C@@H]1OC(=O)CC(C)C [antimycin A]
- oxygen consumption in the presence of all drugs (HAPI cells [1]; 1 μM): potently inhibited

Compound: CCOC(=O)C1=C(N)Oc2ccc(Br)cc2C1C(C#N)C(=O)OCC (stereo not shown) [HA14-1]
- OCR measured in the presence of FCCP (HAPI cells [1]; 25 μM, positive control): decreased OCR measured in the presence of FCCP
- oligomycin-insensitive oxygen consumption (HAPI cells [1]; 25 μM, positive control): elevated oligomycin-insensitive oxygen consumption

Compound: CC[C@H]1/C=C/C=C/C[C@@H](C)[C@H](O)[C@@](C)(O)C(=O)[C@@H](C)[C@H](O)[C@@H](C)C(=O)[C@@H](C)[C@H](O)[C@@H](C)/C=C/C(=O)O[C@@H]2[C@H](C)[C@H](CC1)O[C@]1(CC[C@H](C)[C@H](C[C@@H](C)O)O1)[C@H]2C [oligomycin]
- decrease of total cellular ATP (HAPI cells [2]): approximately 70%
